Data as given in patent publication US12186293B2, “Therapeutic methods using decanoic acid and amino acids” (Wintermute Biomedical, Inc., priority 2018, dated 2025).

Test system: methicillin-resistant Staphylococcus aureus (MRSA)
Assay: In vitro bactericidal test on MRSA isolates (viable CFU/mL after 24 hours of treatment)
Details: average across three MRSA isolates
Description: Note that efficacy is reported in terms of the viable bacterial concentration (in CFU/mL) remaining after 24 hours of treatment with the drug product (in compliance with CLSI guidelines).
In this example, bacteria (MRSA isolates) are put onto fresh plates and allowed to grow for 30 hours. A suspension inoculum is made from the plates (e.g., a 1 McFarland solution in sterile water), from which the turbidity may be optically read. A standard inoculum may then be cultured in media and 100 μL of that solution combined with 100 μL of drug product and grown at various dilutions for 16-20 hrs. Duplicates may then be examined (e.g., following pelleting at 7,000 RPM for 15 min, resuspended in PBS and serial dilutions plated and grown for 24 hrs.). Duplicate plates at multiple dilutions may then be imaged and colonies counted.

CCCCCCCCCCCCCCCCO [CA, cetyl alcohol]
effect of increasing amounts of CA in the UCA and LARG composition: decrease in efficacy
